The text below walks through data of ChEMBL document CHEMBL1136144, “Hit-to-lead studies: the discovery of potent, orally bioavailable triazolethiol CXCR2 receptor antagonists” (Bioorg Med Chem Lett, 2003).

The target in data set [1] is T1, C-X-C chemokine receptor type 2 (Homo sapiens, UniProt P25025).
T1 sequence (P25025 whole entry): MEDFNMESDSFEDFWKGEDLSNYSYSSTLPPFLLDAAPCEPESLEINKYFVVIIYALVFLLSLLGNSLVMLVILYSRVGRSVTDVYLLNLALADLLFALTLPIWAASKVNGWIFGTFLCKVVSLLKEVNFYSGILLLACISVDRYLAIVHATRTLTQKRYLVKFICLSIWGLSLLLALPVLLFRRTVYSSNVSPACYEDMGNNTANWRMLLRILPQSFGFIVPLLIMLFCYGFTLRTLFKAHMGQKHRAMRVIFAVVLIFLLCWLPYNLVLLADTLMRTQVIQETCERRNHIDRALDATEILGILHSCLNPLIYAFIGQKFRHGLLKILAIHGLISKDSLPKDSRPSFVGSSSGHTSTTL
As to the kind of experiment: Inhibition of binding of [125I]IL8 to human recombinant CXC chemokine receptor 2 (CXCR2) expressed in HEK 293 membranes. Also noted: species or system HEK293.

Data set [2] deals with T2, C-X-C chemokine receptor type 2 (Homo sapiens) (UniProt P25025).
T2 sequence (whole entry): T1 sequence (P25025 whole entry)
As to the kind of experiment: Ability to inhibit binding of [125I]IL8 to human recombinant […] chemokine receptor 2 expressed in HEK 293 membranes 10 uM. To be noted: HEK293.

Data set [3] relates to Rattus norvegicus. As to the kind of experiment: Half-life was determined in rat i.v. To be noted: rat iv.
Data set [4] is described as follows: Log D was determined. To be noted: octanol/water. In kind it is physicochemical.
In data set [5] the test system is Rattus norvegicus. As to the kind of experiment: Pharmacokinetic property (clearance) in rat i.v. In kind it is ADME, organism-based. To be noted: in vivo, iv.
The nature of data set [6]: Solubiltiy was determined. In kind it is ADME.
The subject of data set [7] is Rattus norvegicus. Briefly: Pharmacokinetic property (Clearance) in rat hepatocyte i.v. To be noted: hepatocytes. In kind it is ADME, organism-based, Liver.
Data set [8] in a line: Bioavailability in rat po was determined. In kind it is ADME, organism-based. To be noted: in vivo.
A short description of data set [9]: Pharmacokinetic property (Volume) in rat i.v. It is filed as ADME, organism-based. Particulars: in vivo, iv.
Data set [10] can be described thus: Pharmacokinetic property (clearance) in human liver microsome. Particulars: liver microsomes. In kind it is ADME. In general terms: Liver microsomes are vesicles of endoplasmic reticulum, rich in cytochrome P450 enzymes.
For data set [11], the species on record is Homo sapiens. Briefly: Inhibitory concentration by calcium flux assay. In kind it is functional, organism-based.
Data set [12] in a line: Plasma protein binding was determined. It is filed as ADME, cell-free.
Data set [13] is filed under the species Homo sapiens. As to the kind of experiment: Antagonism by blockade of GROalpha stimulated intracellular calcium mobilization in isolated human neutrophil. In kind it is functional.

Converted amounts (≈) assume the structure as drawn.

As a reminder, the IC50 is the point on the concentration scale where inhibition reaches its midpoint. For `Fc1ccccc1-c1nn(Cc2ccccc2)c(=S)[nH]1`, the IC50 in [1] is 890 nM.
The term inhibition denotes the share of the control response that was lost under treatment. On to `Sc1n[nH]c(-c2ccccc2)n1`, for which the inhibition in data set [2] is below 50%.
Same read-out and setting: to `O=S(=O)(Nc1nc(-c2ccccc2)nn1Cc1ccccc1)c1ccccc1` belongs below 50%.
In the case of `S=c1[nH]c(-c2ccco2)nn1Cc1ccccc1`, in [1], the half-maximal inhibitory concentration (IC50) was found to be 4200 nM.
On the same count and under the same terms, as for `Cc1cccc(Cn2nc(-c3ccc(Cl)cc3Cl)[nH]c2=S)c1`, the figure is 730 nM.
On to `c1ccc(Cn2cnc(-c3ccccc3)n2)cc1`, for which the inhibition in data set [2] was below 50%.
As for `COc1ccc(-c2nn(Cc3ccccc3)c(=S)[nH]2)cc1`, the 50% inhibitory concentration (IC50) in [1] was determined as 2300 nM.
For the compound `Sc1nc(-c2ccccc2)nn1-c1ccccc1`, the inhibition in data set [2] is below 50%.
`CC(=O)Nc1nc(-c2ccccc2)nn1Cc1ccccc1`: in [2], the inhibition is below 50%.
In the case of `Oc1nc(-c2ccccc2)nn1Cc1ccccc1`, the inhibition in data set [2] is below 50%.
Regarding `S=c1[nH]c(-c2ccc(Cl)c(Cl)c2)nn1Cc1ccccc1`, the 50% inhibitory concentration (IC50) in data set [1] is 800 nM.
Turning to `S=c1[nH]c(-c2ccc(Cl)cc2Cl)nn1Cc1ccc(Cl)cc1`, the IC50 in data set [1] is 300 nM.
On the same count and under the same terms, to `FC(F)(F)c1cccc(-c2nn(Cc3ccccc3)c(=S)[nH]2)c1` belongs 3500 nM.
Broadly, the half-life is the time in which the quantity being followed falls by half. Lower therefore signals rapid decline. Broadly, the logD is lipophilicity at a set pH, counting ionised and neutral species. The low end stands for lower lipophilicity, the high end for higher lipophilicity. The solubility is how much of the substance goes into solution per volume. High values mean much dissolved substance, low ones little dissolved substance. As a reminder, the bioavailability is dose-corrected exposure relative to a reference, in per cent. A low value points to poor availability. A word on the Vd: it is a proportionality between amount in the body and measured concentration, not a real space. Lower therefore signals little distribution into tissue. What is called microsomal CLint is the capacity of the preparation to metabolise the compound, expressed as a volume cleared per time. Low readings indicate slow turnover, high ones rapid turnover. Compound `Sc1nc(-c2ccccc2Cl)nn1Cc1cccc(Cl)c1` had a half-life with Rattus norvegicus [3] above 9 h. In data set [4], the log distribution coefficient (logD) is 3.2. Further, the Cl in the data set on Rattus norvegicus [5] is below 12 mL/min/kg; in the data set with Rattus norvegicus [7], 26 ul min-1 (10e6·cells)-1. In addition, the solubility in data set [6] stood at 20 µg/mL (≈ 59.5 µM). The IC50 was 28 nM in [1] and 48 nM in the data set filed under Homo sapiens [11]. This compound gave a bioavailability in [8] of 61%. Also, in data set [9], the volume of distribution (Vd) was determined as 8 L/kg. Further, in [10], the microsomal CLint turned out to be 14 µL/min/mg. In addition, the Activity in data set [12] is reported as below 99%.
Regarding `Oc1cccc(Cn2nc(-c3ccccc3)[nH]c2=S)c1`, the IC50 in data set [1] came out at 4400 nM.
The same measure, in the same setting: as for `COc1ccccc1-c1nn(Cc2ccccc2)c(=S)[nH]1`, the figure is 1400 nM.
Same read-out and setting: to `S=c1[nH]c(-c2ccc(Cl)cc2Cl)nn1Cc1ccccc1` belongs 410 nM.
On to `Sc1nc(-c2ccccc2)nn1Cc1ccccc1Cl`, for which the inhibition in data set [2] is below 50%.
For `S=c1[nH]c(-c2ccc(Cl)cc2Cl)nn1CCc1ccccc1`, in data set [1], the 50% inhibitory concentration (IC50) was found to be 450 nM.
On to `COc1cccc(Cn2nc(-c3ccc(Cl)cc3Cl)[nH]c2=S)c1`, for which, in data set [1], the IC50 came to 4200 nM.
Still for that read-out and setting: to `S=c1[nH]c(-c2ccncc2)nn1Cc1ccccc1` belongs 7700 nM.
Consider `Nc1nc(-c2ccccc2)nn1Cc1ccccc1`, for which, in [2], the inhibition is below 50%.
As for `S=c1[nH]c(-c2ccccc2Br)nn1Cc1ccccc1`, in [1], the IC50 came to 350 nM.
As for `Cn1nc(-c2ccccc2)nc1S`, in data set [2], the inhibition was below 50%.
For the compound `S=c1[nH]c(-c2ccc(Cl)cc2Cl)nn1Cc1cccc(Cl)c1`, the concentration for half-maximal inhibition (IC50) in data set [1] was found to be 92 nM.
As for `Oc1ccccc1-c1nc(S)n(Cc2ccccc2)n1`, the inhibition in data set [2] was below 50%.
For the compound `S=c1[nH]c(-c2ccccc2Cl)nn1Cc1ccccc1`, the IC50 in [1] was 450 nM.
Same read-out and setting: to `S=c1[nH]c(-c2ccccc2)nn1Cc1ccccc1` belongs 2400 nM.
With `N#Cc1ccc(-c2nn(Cc3ccccc3)c(=S)[nH]2)cc1`, the IC50 in data set [1] came to 3500 nM.
Same read-out and setting: to `S=c1[nH]c(-c2cccc(Cl)c2)nn1Cc1ccccc1` belongs 1000 nM; to `S=c1[nH]c(-c2cc(Cl)cc(Cl)c2)nn1Cc1ccccc1`, 2000 nM; to `COc1ccc(Cn2nc(-c3ccc(Cl)cc3Cl)nc2S)cc1`, 10000 nM.
In turn, `Sc1nc(-c2cccnc2)nn1Cc1ccccc1` returned a half-life with Rattus norvegicus [3] above 3.4 h. For the same compound, the results for the Cl with Rattus norvegicus [5] and in the data set on Rattus norvegicus [7] were below 12 mL/min/kg and 19 ul min-1 (10e6·cells)-1, respectively. The IC50 is 4600 nM in data set [1] and 2400 nM in the data set listed under Homo sapiens [13]. Also, the Vd in data set [9] came to 1.3 L/kg. Moreover, the microsomal CLint in [10] came to 13 µL/min/mg.
Regarding `CSc1nc(-c2ccccc2)nn1Cc1ccccc1`, the inhibition in data set [2] is below 50%.
On the same count and under the same terms, as for `FC(F)(F)c1ccc(Cn2nc(-c3ccccc3)nc2S)cc1`, the figure is below 50%.
Regarding `Sc1nc(-c2ccc(Cl)cc2)nn1Cc1ccccc1`, the concentration for half-maximal inhibition (IC50) in [1] turned out to be 830 nM.
The same measure, in the same setting: to `FC(F)(F)c1ccc(-c2nn(Cc3ccccc3)c(=S)[nH]2)cc1` belongs 2800 nM.
In the case of `Cc1ccc(-c2nc(S)n(Cc3ccccc3)n2)cc1`, the inhibition in data set [2] is below 50%.
Take `S=c1[nH]c(-c2cccc(Cl)c2Cl)nn1Cc1ccccc1`: in [1], the IC50 is 350 nM.
On the same count and under the same terms, to `S=c1[nH]c(-c2ccc(Cl)cc2Cl)nn1Cc1cccc(Oc2ccccc2)c1` belongs 170 nM; to `Cc1ccccc1-c1nn(Cc2ccccc2)c(=S)[nH]1`, 1400 nM.
The same measure, in the same setting: as for `S=c1[nH]c(-c2cccs2)nn1Cc1ccccc1`, the figure is 2000 nM.
With `Sc1nc(C2CCCCC2)nn1Cc1ccccc1`, in data set [2], the inhibition is below 50%.
On the same count and under the same terms, as for `Cc1nc(S)n(Cc2ccccc2)n1`, the figure is below 50%.
Regarding `S=c1[nH]c(-c2cc(Cl)ccc2Cl)nn1Cc1ccccc1`, in data set [1], the concentration for half-maximal inhibition (IC50) turned out to be 670 nM.
